The subject of the test is diheteromeric human recombinant NMDAR containing GluN1 plus GluN2A, GluN2B, GluN2C or GluN2D. As to the kind of experiment: FLIPR calcium assay, statements for all four NMDAR subtypes together. Type of test: cell-based. An excerpt:
An operational equation for allosteric modulators (Leach K, Sexton P M and Christopoulos A, Allosteric GPCR modulators: taking advantage of permissive receptor pharmacology, Trends Pharmacol. Sci. 28: 382-389, 2007; Kenakin T P, Overview of receptor interaction of agonists and antagonists, Curr. Protoc. Pharmacol. Chapter 4: Unit 4.1, 2008, Kenakin T P, Biased signalling and allosteric machines: new vistas and challenges for drug discovery, Br. J. Pharmacol. 165: 1659-1669, 2012) was created in Prism 8 (GraphPad) software to estimate KB and a parameters for every test item, with the assumption that, as a pore blocker, every test item would be able to produce a compete blockade of agonist response, at sufficiently high concentration: […]

Results on 1 substance are retold here after US20230017786A1, “DEXTR[…] A DISEASE-MODIFYING TREATMENT FOR NEUROPSYCHIATRIC DISORDERS AND DISEASES” (priority 2020, published 2023).

Where “and” joins values, the source holds several entries; their conditions need not be identical. Identical values can stand only once.

Regarding (+)-MK 801 maleate, the “profile on L-glutamate CRC” value (6 test item concentrations) is reported as “insurmountable profile”. Also, the GluN2 subunit preference result (from estimated affinities) is “slight preference for GluN2B containing NMDAR”. Also, the Kb (read-out: estimated KB with any/all of the NMDAR subtypes) was 50 nM and ≤ 50 nM.
